Test: Inhibition of Aurora 2 kinase

In the case of `COc1c(O)cc2c3c(cc4ccc(O)cc4c13)NC2=O` [aristololactam A IIIa], the IC50 is reported as 2140 nM.
